From PubChem BioAssay (NCI)
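In this assay, cells in 96-well plates receive the compound at five concentrations for 48 hours. Endpoints are linearly interpolated between the surrounding concentrations. TGI: total growth inhibition.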

Key:
Assay in all cases: inhibition of tumour cell growth, NCI panel, 48 h
UACC-62 melanoma = system: UACC-62 melanoma
MDA-MB-231 breast = system: MDA-MB-231 breast
IGROV1 ovarian = system: IGROV1 ovarian
MALME-3M melanoma = system: MALME-3M melanoma
SK-MEL-28 melanoma = system: SK-MEL-28 melanoma
SN12C renal = system: SN12C renal
OVCAR-5 ovarian = system: OVCAR-5 ovarian
HCT-15 colon = system: HCT-15 colon
MCF7 breast = system: MCF7 breast
RXF 393 renal = system: RXF 393 renal
SF-295 CNS = system: SF-295 CNS
LOX IMVI melanoma = system: LOX IMVI melanoma
TK-10 renal = system: TK-10 renal
SNB-75 CNS = system: SNB-75 CNS

| SMILES | TGI (UACC-62 melanoma) | TGI (MDA-MB-231 breast) | TGI (IGROV1 ovarian) | TGI (MALME-3M melanoma) | TGI (SK-MEL-28 melanoma) | TGI (SN12C renal) | TGI (OVCAR-5 ovarian) | TGI (HCT-15 colon) | TGI (MCF7 breast) | TGI (RXF 393 renal) | TGI (SF-295 CNS) | TGI (LOX IMVI melanoma) | TGI (TK-10 renal) | TGI (SNB-75 CNS) |
| --- | --- | --- | --- | --- | --- | --- | --- | --- | --- | --- | --- | --- | --- | --- |
| N#C/C=C(/NC(=O)Nc1ccccc1)N1CCCC1 | > 100 µM | > 100 µM | > 76.3 µM | > 66.9 µM | > 83.3 µM | > 100 µM | > 100 µM | > 100 µM | > 55 µM | > 100 µM | > 43.8 µM | 97.4 µM | > 55.4 µM | > 21.4 µM |
| CN(C)N1C(=C(C#N)C#N)C(c2ccccc2)CC1C#N (stereo not given) | > 100 µM | > 100 µM | > 100 µM | > 100 µM | > 100 µM | > 100 µM | > 100 µM | > 100 µM | > 100 µM | > 100 µM | > 100 µM | > 100 µM | > 100 µM | > 100 µM |
| Cc1cc2c3c(c1)S(=O)(=O)c1cc(Cl)ccc1N3CCC2 | > 100 µM | > 100 µM | > 100 µM | > 100 µM | > 100 µM | > 100 µM | > 100 µM | > 100 µM | > 100 µM | > 100 µM | > 100 µM | > 100 µM | > 100 µM | > 100 µM |
| C[C@]12C(=O)OC[C@H](c3ccccc3)N1C(=O)N(Cc1ccccc1)[C@@H]2CO | > 100 µM | > 100 µM | > 100 µM | > 100 µM | > 100 µM | > 100 µM | > 100 µM | > 100 µM | > 100 µM | > 100 µM | > 100 µM | > 100 µM | > 100 µM | > 100 µM |
| COc1cc2c(c3nc4ccccc4nc13)-c1ccc(SC)c(=O)cc1[C@@H](NC(C)=O)CC2 | > 100 µM | > 100 µM | 0.528 µM | 0.0861 µM | > 100 µM | > 100 µM | > 100 µM | > 21.7 µM | > 100 µM | > 100 µM | > 100 µM | > 100 µM | > 100 µM | > 100 µM |
| C/C(=N/NC(=S)N1CCCCCC1)c1cccc(/C(C)=N\NC(=S)N2CCCCCC2)n1 | 5.27 µM | 3.41 µM | 2.86 µM | 2.28 µM | 6 µM | 4.57 µM | 5.26 µM | 5.36 µM | 3.46 µM | 3.69 µM | 4.12 µM | 3.41 µM | 3.29 µM | 4.68 µM |
| CC(=O)N1N=C(c2ccccc2)NC(=O)C1c1cc(C)c(O)c(C)c1 (stereo not given) | 40 µM | 46.3 µM | 72.7 µM | 38.1 µM | > 100 µM | 79.1 µM | > 100 µM | > 100 µM | 43.6 µM | 31.2 µM | 43.8 µM | > 100 µM | 38.2 µM | 37.5 µM |
| C[C@]12CCC(=O)C=C1CC[C@@H]1[C@@H]2CC[C@]2(C)C(=O)/C(=C/c3ccc([N+](=O)[O-])cc3)C[C@@H]12 | 46.2 µM | > 100 µM | > 100 µM | > 100 µM | > 100 µM | > 100 µM | > 100 µM | > 100 µM | 23.5 µM | 73.5 µM | > 100 µM | > 100 µM | > 100 µM | > 100 µM |
| CN(C)c1ccc(-c2c(C#N)c(-c3ccccc3)n(NS(=O)(=O)c3ccccc3)c(=O)c2C#N)cc1 | > 100 µM | > 100 µM | > 100 µM | > 100 µM | > 100 µM | > 100 µM | > 100 µM | > 100 µM | > 100 µM | > 100 µM | > 100 µM | > 100 µM | > 100 µM | > 100 µM |
| Nc1nc(N)c2cc(-c3cc4ccccc4[nH]3)ccc2n1 | 33.9 µM | 39.3 µM | 33.4 µM | 30.4 µM | 48.7 µM | > 100 µM | 65 µM | 55 µM | 33.6 µM | 48.4 µM | 90.2 µM | 36.3 µM | 37.2 µM | > 100 µM |
